Data set [1] is described as follows: Pharmacokinetic DDI study in rats, intravenous Y101 and/or ETV. Type of data set: in vivo, Sprague–Dawley (SD) rats. The following applies: Sprague-Dawley, rat, plasma; for AUC(0-inf) / AUC(0-t) / Cmax / Tmax / half-life / C0 / Vd: n = 4; for clearance: n = 4, read-out: CLp (plasma clearance) (converted). Here is the method: Additionally, DDI between Y101 and ETV was investigated by monitoring time-course plasma Y101 in rats with surgery as described above. Animals were randomly placed into three groups (n = 4): (1) Y101 alone (25 mg/kg for intravenous treatment and 60 mg/kg for oral administration); (2) ETV (0.06 mg/kg); and (3) Y101 (25 mg/kg for intravenous treatment and 60 mg/kg for oral administration) + ETV (0.06 mg/kg). ETV was dissolved in saline at concentration of 12 µg/mL. Rats received an oral or intravenous dose of Y101 and/or ETV at volume of 5 mL/kg. The doses used in in vivo pharmacokinetic studies were selected in accordance with therapeutic doses of Y101 and ETV commonly used clinically and in previous studies.
Following administration, serial blood samples were collected through jugular vein pre-dose (0 h) and post-dose at 0.033, 0.083, 0.25, 0.5, 1, 1.5, 2, 3, 4, 6, 9, 12, 24 and 30 h in heparinized Eppendorf tubes. The resulting samples were centrifuged at 13,800× g at 4 °C for 5 min to obtain plasma. All plasma samples were stored at −70 °C until analysis.
Biological samples were prepared as previously described.
Non-compartmental analysis with Phenix WinNonlin (version 8.1; Pharsight, Certara Corp, Princeton, NJ) was used to calculate the main pharmacokinetic parameters of ETV, Y101, M8 and M9 for individual rats. The observed values were reported for maximum concentration (Cmax) and time to reach maximum concentration (Tmax), while the area under the plasma concentration–time curve (AUC) was calculated via the default trapezoidal-up, log-trapezoidal-down approach.

In the next data set the test system is rat kidney slices. As to the kind of experiment: In vitro uptake assay in kidney slices. Type of data set: in vitro ADME. To be noted: for time and temperature dependence of uptake in kidney slices: 37 °C vs 4 °C, M9 1.0 µM, 5 to 30 min. Here is the method: The renal cortex was cut into 300 µm slices with a ZQP-86 tissue slicer (Shanghai Zhisun Equipment Co., Ltd., Shanghai, China; surface area 0.15 cm^2). […] Next, the kidney slices were prepared as previously described. Two slices per well were placed into 37 °C buffer filled with oxygen for pre-incubation for 3 min and then gently moved into a 24-well cell culture plate containing 1 mL oxygenated buffer at 4 °C or 37 °C. The uptakes of ETV (10 µM), Y101 (2.0 µM), M8 (5.0 µM) and M9 (1.0 µM) were measured at 5, 10, 15 and 30 min after the treatment, respectively. […] Following incubation at the designated time, kidney slices were collected, rinsed with ice-cold buffer three times, and dried on filter paper. After weighing and homogenization (IKA-T 10 homogenizer; IKA, Staufen, Germany), the concentrations of Y101, M8, M9 and ETV of kidney slice homogenates were determined as in the description below.
Biological samples were prepared as previously described. Aliquots (50 µL) of urine, plasma, kidney homogenates, or cell lysates were individually mixed with 150 µL methanol and 50 µL working solution of internal standard (acetaminophen or bestatin), followed by vortexing for 1 min and centrifuging at 13,800 g for 10 min. […] The resulting supernatant (1 µL) was subjected to LC-MS/MS for the assessment of Y101, M8, M9 and ETV, respectively. […] The concentrations of ETV, Y101, M8 and M9 were determined by an AB QTRAP 5500 LC–MS/MS System (Foster City, CA, USA) as previously described. Chromatographic separation was achieved on an Infinitylab Poroshell 120 EC-C18 (50 mm × 2.1 mm, 2.7 µm, Agilent Technology Inc., CA, USA) at 40 °C. The mobile phase consisted of formic acid-acetonitrile (0.05:100, v/v) and a mixture of 1 mmol-ammonium acetate-acetonitrile-formic acid (95:5:0.05, v/v/v) at a flow rate of 0.3 mL/min. […] Analyst1.5.2 software was used for data processing and analysis.

The mark [2] stands for this setting: i.v. Y101 25 mg/kg + ETV 0.06 mg/kg.
[3] abbreviates: ETV 10 µM, Y101 2.0 µM, M8 5.0 µM.

The record followed here is paper PMC9967645, “OAT3 Participates in Drug–Drug Interaction between Bentysrepinine and Entecavir through Interactions with M8—A Metabolite of Bentysrepinine—In Rats and Humans In Vitro” (Molecules, 2023).

Each structure is given as a SMILES string. Where two headings read alike, the source gives them in different places.

Usually AUC(0-inf) stands for total exposure, with the tail of the curve extrapolated. A word on the AUC(0-t): it is exposure summed from dosing to a finite time, without extrapolation to infinity. For orientation: Cmax means the highest concentration seen after dosing. As a reminder, the Tmax is the time from dosing to the highest level. The term half-life denotes the time needed for the level to fall by half in the phase considered. Take `CN(C)CCOc1ccc(CC(NC(=O)c2ccccc2)C(=O)O)cc1` (stereo not shown) [M8]: in data set [1] (setting [2]), the AUC(0-inf) was determined as 6150 ng·h/mL, the exposure AUC(0-t) is 6100 ng·h/mL, the Cmax came to 2520 ng/mL and the Tmax came to 26.3 min. Also, in data set [1] (setting [2]), the half-life was 159 min. In data set [1] (i.v. Y101 25 mg/kg alone), the total exposure AUC(0-inf) is 5860 ng·h/mL, the AUC(0-t) was determined as 5830 ng·h/mL, the Cmax is 2660 ng/mL and the Tmax worked out at 30 min. For the same compound, in data set [1] (i.v. Y101 25 mg/kg alone), the half-life is 116 min. Also, the “time and temperature dependence of uptake in kidney slices” value with rat kidney slices (Y101 2.0 µM, M8 5.0 µM) is recorded as “temperature-dependent”. Besides, the “effect on the uptake of ETV in kidney slices” value in the data set on rat kidney slices (setting [3]) is “not affected”.

By Vd is commonly meant the apparent volume that relates the amount in the body to the concentration in plasma or blood. The clearance is a measure of how efficiently the substance is removed, as volume per time. For `CN(C)CCOc1ccc(C[C@H](NC(=O)c2ccccc2)C(=O)N[C@H](CO)Cc2ccccc2)cc1.Cl` [Y101, N-[N-benzoyl-O-(2-dimethylaminoethyl)-l-tyrosyl]-l-phenylalaninol hydrochloride], in data set [1] (setting [2]), the area under the curve AUC(0-inf) was 1690 ng·h/mL, the AUC(0-t) stood at 1670 ng·h/mL, the C0 was found to be 6280 ng/mL and the volume of distribution (Vd) worked out at 15.5 L/kg. Moreover, in data set [1] (setting [2]), the half-life was 39.6 min and the clearance is 258 mL/min/kg. Also, in data set [1] (i.v. Y101 25 mg/kg alone), the AUC(0-inf) amounted to 2370 ng·h/mL, the area under the curve AUC(0-t) was 2350 ng·h/mL, the C0 is 10600 ng/mL and the distribution volume (Vd) stood at 10.6 L/kg. In addition, in data set [1] (i.v. Y101 25 mg/kg alone), the half-life was 40.9 min and the clearance was 178 mL/min/kg. For the same compound, in the data set on rat kidney slices (Y101 2.0 µM, M8 5.0 µM), the “time and temperature dependence of uptake in kidney slices” value was “time- and temperature-dependent”. In the data set on rat kidney slices (setting [3]), the “effect on the uptake of ETV in kidney slices” value is on record as “not affected”.

`C=C1[C@H](CO)[C@@H](O)C[C@@H]1n1cnc2c(=O)[nH]c(N)nc21` [ETV, entecavir]: in data set [1] (i.v. ETV 0.06 mg/kg alone), the AUC(0-inf) was determined as 9.79 ng·h/mL, the AUC(0-t) was determined as 9.21 ng·h/mL, the C0 turned out to be 26.4 ng/mL and the distribution volume (Vd) is 11.7 L/kg. In addition, in data set [1] (i.v. ETV 0.06 mg/kg alone), the half-life was 76.8 min and the clearance is 107 mL/min/kg. Also, in data set [1] (setting [2]), the AUC(0-inf) worked out at 6.76 ng·h/mL, the AUC(0-t) was 6.31 ng·h/mL, the C0 is 19.1 ng/mL and the distribution volume (Vd) turned out to be 16.4 L/kg. Moreover, in data set [1] (setting [2]), the half-life is 76.8 min and the clearance was 152 mL/min/kg. Moreover, in the data set with rat kidney slices (M8 5.0 µM, PCG 0.2 and 0.5 mM, PRO 0.1 mM, PAH 0.2 and 0.5 mM, TEA 0.2 mM, 10 min, ETV 10 µM), the “inhibition of the uptake of M8 in kidney slices” value is “significantly inhibited the uptake of M8”. Also, the “inhibition of the uptake of Y101 in kidney slices” value in the data set on rat kidney slices (Y101 2.0 µM, PCG 0.2 and 0.5 mM, PRO 0.1 mM, PAH 0.2 and 0.5 mM, TEA 0.2 mM, 10 min, ETV 10 µM) is reported as “did not show any inhibitory effects”.
